Measured values as given in BindingDB's records for doi:10.1016/j.bmc.2005.09.061 (Fujisawa Pharmaceutical, 2006).

Key:
[1] = biological target: Poly [ADP-ribose] polymerase 2 (Mus musculus, UniProt O88554); assay: PARP Enzyme Inhibition Assay; settings: 25 °C
Protocol: (§1) To assess the inhibitory activity of novel inhibitors, the PARP enzyme assay was carried out in reaction mixture consisting of activated salmon testes DNA, [adenylate-32P]-NAD, recombinant PARP enzyme, and various concentrations of PARP inhibitors. The reaction mixture was incubated at room temperature for 15 min, and the reaction was terminated by adding trichloroacetic acid. The precipitate was transferred onto GF/B filter. After the filter was washed and dried, the radioactivity was determined by liquid scintillation counting. IC50 values were calculated from the concentration dependence of the inhibition curves by using computer-assisted non-linear regression analyses.

[2] = biological target: Poly [ADP-ribose] polymerase 1 (Homo sapiens, UniProt P09874); assay: PARP Enzyme Inhibition Assay; settings: pH 8; 23 °C
Protocol: as §1

Chain of Poly [ADP-ribose] polymerase 1 (P09874 whole entry): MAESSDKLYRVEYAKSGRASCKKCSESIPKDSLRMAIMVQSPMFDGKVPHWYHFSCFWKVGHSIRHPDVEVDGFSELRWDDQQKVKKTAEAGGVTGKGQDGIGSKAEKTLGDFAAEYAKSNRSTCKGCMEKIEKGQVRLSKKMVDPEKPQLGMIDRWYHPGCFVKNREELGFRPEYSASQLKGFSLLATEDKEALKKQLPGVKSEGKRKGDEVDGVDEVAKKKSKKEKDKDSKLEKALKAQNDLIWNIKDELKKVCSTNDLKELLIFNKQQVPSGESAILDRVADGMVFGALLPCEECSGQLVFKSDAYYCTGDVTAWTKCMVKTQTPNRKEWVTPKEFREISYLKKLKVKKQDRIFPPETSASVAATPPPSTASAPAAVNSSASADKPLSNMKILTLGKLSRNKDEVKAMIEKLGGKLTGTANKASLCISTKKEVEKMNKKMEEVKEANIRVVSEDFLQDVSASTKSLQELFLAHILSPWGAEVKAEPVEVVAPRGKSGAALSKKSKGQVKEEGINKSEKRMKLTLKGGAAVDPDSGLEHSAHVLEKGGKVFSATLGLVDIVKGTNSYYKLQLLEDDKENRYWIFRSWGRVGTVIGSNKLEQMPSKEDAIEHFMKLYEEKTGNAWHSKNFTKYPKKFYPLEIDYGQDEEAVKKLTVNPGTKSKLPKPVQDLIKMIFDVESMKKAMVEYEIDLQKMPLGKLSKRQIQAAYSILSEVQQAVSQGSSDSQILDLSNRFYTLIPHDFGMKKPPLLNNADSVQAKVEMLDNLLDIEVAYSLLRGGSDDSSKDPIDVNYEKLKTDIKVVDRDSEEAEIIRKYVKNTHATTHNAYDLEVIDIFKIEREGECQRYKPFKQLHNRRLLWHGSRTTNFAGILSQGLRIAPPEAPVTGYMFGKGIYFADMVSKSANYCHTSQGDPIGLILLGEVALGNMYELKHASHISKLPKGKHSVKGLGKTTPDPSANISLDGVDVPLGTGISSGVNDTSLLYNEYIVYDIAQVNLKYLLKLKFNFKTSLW
Chain of Poly [ADP-ribose] polymerase 2 (O88554 whole entry): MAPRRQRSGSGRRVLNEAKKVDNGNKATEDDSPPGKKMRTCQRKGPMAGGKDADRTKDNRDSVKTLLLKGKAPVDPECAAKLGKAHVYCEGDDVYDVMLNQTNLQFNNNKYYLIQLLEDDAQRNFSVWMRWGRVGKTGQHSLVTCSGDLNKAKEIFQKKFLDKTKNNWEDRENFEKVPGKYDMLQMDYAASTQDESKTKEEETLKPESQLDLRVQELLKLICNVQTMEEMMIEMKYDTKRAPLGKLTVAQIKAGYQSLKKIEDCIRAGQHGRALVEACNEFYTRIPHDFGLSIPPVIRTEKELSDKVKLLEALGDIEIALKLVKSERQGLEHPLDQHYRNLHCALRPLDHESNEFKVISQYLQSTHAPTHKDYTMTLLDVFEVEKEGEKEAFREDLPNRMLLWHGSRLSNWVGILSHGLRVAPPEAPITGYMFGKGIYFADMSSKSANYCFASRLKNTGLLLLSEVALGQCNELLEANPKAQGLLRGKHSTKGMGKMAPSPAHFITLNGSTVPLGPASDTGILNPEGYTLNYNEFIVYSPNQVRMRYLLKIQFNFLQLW

SMILES | IC50 [1] [µM] | IC50 [2] [µM]
NC(=O)c1cccc(N)c1 | 9.81 | 
O=c1[nH]c(CCCN2CC=C(c3ccccc3)CC2)nc2c(Cl)cccc12 | 0.61 | 0.023
N#Cc1ccc(C2=CCN(CCCc3nc4c(Cl)cccc4c(=O)[nH]3)CC2)cc1 | 0.087 | 0.003
Cc1cccc2c(=O)[nH]c(CCCN3CC=C(c4ccc(F)cc4)CC3)nc12 | 0.167 | 0.016
O=c1[nH]c2ccc(CCCN3CC=C(c4ccccc4)CC3)cc2c2ccccc12 | 0.084 | 0.082
N#Cc1ccc(-c2cnc3cccc(C(N)=O)c3n2)cc1 | 0.008 | 0.101
NC(=O)c1cccc2ncc(-c3ccc(C(F)(F)F)cc3)nc12 | 0.011 | 0.118
COc1ccc(-c2cnc3cccc(C(N)=O)c3n2)cc1 | 0.008 | 0.071
O=c1[nH]c(=O)n(CCCCN2CC=C(c3ccccc3)CC2)c2ccccc12 [1-[4-(4-phenyl-1,2,3,6-tetrahydropyridin-1-yl)butyl]-1,2,3,4-tetrahydroquinazoline-2,4-dione] | 0.07 | 0.12
O=c1[nH]c(CCCN2CC=C(c3ccccc3)CC2)nc2ccccc12 [2-[3-(4-phenyl-1,2,3,6-tetrahydropyridin-1-yl)propyl]-3,4-dihydroquinazolin-4-one] | 0.608 | 0.021
O=c1[nH]c(CCCN2CCN(c3ccc(Cl)cc3)CC2)nc2ccccc12 [2-{3-[4-(4-chlorophenyl)piperazin-1-yl]propyl}-3,4-dihydroquinazolin-4-one] | 0.3 | 0.011
NC(=O)c1cccc2ncc(-c3ccc(N)cc3)nc12 [3-(4-aminophenyl)quinoxaline-5-carboxamide] | 0.009 | 0.087
NC(=O)c1cccc2ncc(-c3ccc(Cl)cc3)nc12 [3-(4-chlorophenyl)quinoxaline-5-carboxamide] | 0.007 | 0.033
NC(=O)c1cccc2ncc(-c3ccccc3)nc12 [3-phenylquinoxaline-5-carboxamide] | 0.014 | 0.131
O=c1[nH]nc(CCCCN2CC=C(c3ccccc3)CC2)c2ccccc12 [4-[4-(4-Phenyl-3,6-dihydro-2H-pyridin-1-yl)-butyl]-2H-phthalazin-1-one] | 0.09 | 0.12
O=c1[nH]nc(CCCCN2CC=C(c3ccc(F)cc3)CC2)c2ccccc12 [4-{4-[4-(4-fluorophenyl)-1,2,3,6-tetrahydropyridin-1-yl]butyl}-1,2-dihydrophthalazin-1-one] | 0.084 | 0.049
O=c1[nH]c(CCCN2CC=C(c3ccccc3)CC2)nc2cccc(Cl)c12 [5-Chloro-2-[3-(4-phenyl-3,6-dihydro-2H-pyridin-1-yl)-propyl]-3H-quinazolin-4-one] | 0.63 | 0.068
Cc1nc2cccc(Cl)c2c(=O)[nH]1 [5-chloro-2-methyl-3,4-dihydroquinazolin-4-one] | 0.66 | 
O=c1[nH]c(=O)n(CCCCC2CC=C(c3ccccc3)CC2)c2cccc(F)c12 (stereo unspecified) [5-fluoro-1-[4-(4-phenylcyclohex-3-en-1-yl)butyl]-1,2,3,4-tetrahydroquinazoline-2,4-dione] |  | > 1
O=c1[nH]c(CCCN2CC=C(c3ccc(F)cc3)CC2)nc2c(Cl)cccc12 [8-chloro-2-{3-[4-(4-fluorophenyl)-1,2,3,6-tetrahydropyridin-1-yl]propyl}-3,4-dihydroquinazolin-4-one] | 0.5 | 
